Reference: patent publication US4988733A, “N-[1-(3-phenoxyphenyl)ethyl]acetohydroxamic acid compounds which are useful anti-inflammatory agents” (Burroughs Wellcome Co., priority 1987, dated 1991)
“And” between values parts separate entries of the source, which are not always exact repeats. Equal entries are not always repeated. Each block holds one compound with its values, some of them ahead of it.

Legend:
[1] = Plasma concentration after administration to rabbits of 10 mg/kg PO; format: in vivo; conditions: rabbit; for Cmax: read-out: Maximum plasma concentration; for half-life: read-out: time for plasma concentration to fall to 50% of maximum value obtained after administration (converted)
Description: A. Maximum plasma concentration obtained after administration to rabbits of 10 mg/kg PO and time for plasma concentration to fall to 50% of maximum value obtained after administration

[2] = test system: stimulated LTB4 synthesis; assay: Stimulated LTB4 synthesis ex vivo after administration to rabbits of 10 mg/kg PO; format: in vivo
Description: B. Time for stimulated LTB4 synthesis ex vivo to return to 50% of original value after administration to rabbits of 10 mg/kg PO

5-lipoxygenase (5-LO) = target: T1, 5-lipoxygenase (5-LO) (Homo sapiens, UniProt P09917); assay: In vitro inhibition of 5-lipoxygenase in homogenised leukocytes (LTB4 radioimmunoassay); format: biochemical; conditions: homogenised leukocytes of aspirin-free volunteers, 5 μM arachidonic acid, 37° C., 5 minutes
T1 construct: The leukocytes were homogenised and 5 μM arachidonic acid added; from tissue; host or cells: homogenised blood leukocytes of normal aspirin-free volunteers
T1 sequence (P09917 1-674): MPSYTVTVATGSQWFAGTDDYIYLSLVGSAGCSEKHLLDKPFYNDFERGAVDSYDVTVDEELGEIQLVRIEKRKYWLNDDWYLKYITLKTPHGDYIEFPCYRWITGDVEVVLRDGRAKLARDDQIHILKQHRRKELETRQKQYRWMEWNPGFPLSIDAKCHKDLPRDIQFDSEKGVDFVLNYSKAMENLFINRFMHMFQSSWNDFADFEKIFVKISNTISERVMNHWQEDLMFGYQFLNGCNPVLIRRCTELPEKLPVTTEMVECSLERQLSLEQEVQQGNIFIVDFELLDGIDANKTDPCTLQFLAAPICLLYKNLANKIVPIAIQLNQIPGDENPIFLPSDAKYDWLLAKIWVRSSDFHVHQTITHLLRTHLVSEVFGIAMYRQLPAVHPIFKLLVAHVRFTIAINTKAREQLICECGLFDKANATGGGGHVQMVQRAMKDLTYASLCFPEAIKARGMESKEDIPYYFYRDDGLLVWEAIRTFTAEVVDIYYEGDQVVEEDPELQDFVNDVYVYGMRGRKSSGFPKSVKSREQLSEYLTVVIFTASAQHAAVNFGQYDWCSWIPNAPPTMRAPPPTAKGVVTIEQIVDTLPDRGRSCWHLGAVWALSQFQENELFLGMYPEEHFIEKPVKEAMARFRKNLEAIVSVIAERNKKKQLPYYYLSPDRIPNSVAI
Description: (§1) C. In vitro inhibition of 5-lipoxygenase (5-LO) and cyclo-oxygenase (CO) Blood from normal aspirin-free volunteers was centrifuged to separate leukocytes from red cells and platelets. The leukocytes were homogenised and 5 μM arachidonic acid added, followed by incubation at 37° C. for 5 minutes. The reaction was stopped by boiling and radioimmunoassays conducted for LTB4 and TXB2. Results were calculated as IC50 (μM) activity against each enzyme.

cyclo-oxygenase (CO) = target: T2, cyclo-oxygenase (CO) (Homo sapiens, UniProt P23219); assay: In vitro inhibition of cyclo-oxygenase in homogenised leukocytes (TXB2 radioimmunoassay); format: biochemical; conditions: homogenised leukocytes of aspirin-free volunteers, 5 μM arachidonic acid, 37° C., 5 minutes
T2 construct: The leukocytes were homogenised and 5 μM arachidonic acid added; from tissue; host or cells: homogenised blood leukocytes of normal aspirin-free volunteers
Description: as §1

T2 sequence (P23219 24-599): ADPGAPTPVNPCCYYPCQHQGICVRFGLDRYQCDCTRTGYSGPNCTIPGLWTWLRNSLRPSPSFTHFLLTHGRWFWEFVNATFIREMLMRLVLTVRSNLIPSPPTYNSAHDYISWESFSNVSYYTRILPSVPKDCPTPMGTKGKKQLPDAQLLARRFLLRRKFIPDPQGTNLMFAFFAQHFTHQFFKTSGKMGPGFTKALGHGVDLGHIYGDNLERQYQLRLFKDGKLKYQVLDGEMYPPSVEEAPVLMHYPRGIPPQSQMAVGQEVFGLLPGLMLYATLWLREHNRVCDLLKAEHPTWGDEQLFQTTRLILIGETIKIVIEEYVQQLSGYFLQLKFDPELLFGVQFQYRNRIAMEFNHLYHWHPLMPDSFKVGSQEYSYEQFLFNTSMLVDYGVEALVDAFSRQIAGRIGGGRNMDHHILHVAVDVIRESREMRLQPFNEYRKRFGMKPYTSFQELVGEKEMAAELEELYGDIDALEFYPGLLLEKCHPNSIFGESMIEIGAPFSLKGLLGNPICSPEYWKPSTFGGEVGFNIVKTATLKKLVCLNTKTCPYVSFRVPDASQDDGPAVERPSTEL

SMILES: CC(=O)N(O)C(C)/C=C/c1cccc(Oc2cc(Cl)cc(Cl)c2)c1 (stereo not drawn) [(E)-N-{1-Methyl-3-[3-(3,5-dichlorophenoxy)phenyl]prop-2-enyl}acetohydroxamic acid]
Cmax [1]: 1.9 µg/mL
half-life [1]: > 24 h
Time for stimulated LTB4 synthesis ex vivo to return to 50% of original value [2]: > 24 h
IC50 (5-lipoxygenase (5-LO)): 0.4 µM

SMILES: CC(=O)N(O)C(C)/C=C/c1cccc(Oc2cccc(C(F)(F)F)c2)c1 (stereo not drawn) [(E)-N-{1-Methyl-3-[3-(3-trifluoromethylphenoxy)phenyl]prop-2-enyl}acetohydroxamic acid]
Cmax [1]: 0.84 µg/mL
half-life [1]: > 24 h
Time for stimulated LTB4 synthesis ex vivo to return to 50% of original value [2]: > 24 h
IC50 (5-lipoxygenase (5-LO)): 0.11 µM
IC50 (cyclo-oxygenase (CO)): > 1 µM

SMILES: CC(=O)N(O)C(C)/C=C/c1cccc(Oc2ccc(C(C)(C)C)cc2)c1 (stereo not drawn) [(E)-N-{1-Methyl-3-[3-(4-t-butylphenoxy)phenyl]prop-2-enyl}acetohydroxamic acid]
Cmax [1]: 0.16 µg/mL
half-life [1]: > 24 h
Time for stimulated LTB4 synthesis ex vivo to return to 50% of original value [2]: 2.4 h
IC50 (5-lipoxygenase (5-LO)): 0.5 µM

SMILES: CC(=O)N(O)C(C)/C=C/c1cccc(Oc2ccc(Br)cc2)c1 (stereo not drawn) [(E)-N-{1-Methyl-3-[3-(4-bromophenoxy)phenyl]prop-2-enyl}acetohydroxamic acid]
Cmax [1]: 0.71 µg/mL
half-life [1]: > 24 h
Time for stimulated LTB4 synthesis ex vivo to return to 50% of original value [2]: > 24 h
IC50 (5-lipoxygenase (5-LO)): 0.01 µM
IC50 (cyclo-oxygenase (CO)): 0.18 µM

SMILES: CC(=O)N(O)C(C)/C=C/c1cccc(Oc2ccc(C)cc2)c1 (stereo not drawn) [(E)-N-{1-Methyl-3-[3-(4-methylphenoxy)phenyl]prop-2-enyl}acetohydroxamic acid]
Cmax [1]: 0.07 µg/mL
half-life [1]: 4.3 h

SMILES: CC(=O)N(O)C(C)/C=C/c1cccc(Oc2ccc(F)cc2F)c1 (stereo not drawn) [(E)-N-{1-Methyl-3-[3-(2,4-difluorophenoxy)phenyl]prop-2-enyl}acetohydroxamic acid]
Time for stimulated LTB4 synthesis ex vivo to return to 50% of original value [2]: 20.7 h

Now from value to compound, other results behind:

Cmax [1]: 1.07 µg/mL
half-life [1]: 11.3 h
IC50 (5-lipoxygenase (5-LO)): 0.2 µM and 0.3 µM
SMILES: CC(=O)N(O)C(C)/C=C/c1cccc(Oc2ccc(F)cc2)c1 (stereo not drawn) [(E)-N-{1-methyl-3-[3-(4-fluorophenoxy)phenyl]prop-2-enyl}acetohydroxamic acid]
Time for stimulated LTB4 synthesis ex vivo to return to 50% of original value [2]: 24.0 h

Cmax [1]: 0.46 µg/mL
half-life [1]: 10.7 h
IC50 (5-lipoxygenase (5-LO)): 0.08 µM
IC50 (cyclo-oxygenase (CO)): 1 µM
SMILES: CC(=O)N(O)C(C)/C=C/c1cccc(Oc2ccccc2)c1 (stereo not drawn) [(E)-N-[1-methyl-3-(3-phenoxyphenyl)prop-2-enyl]acetohydroxamic acid]
Time for stimulated LTB4 synthesis ex vivo to return to 50% of original value [2]: 22.6 h

IC50 (cyclo-oxygenase (CO)): 1 µM
SMILES: CC(=O)N(O)C/C=C/c1cccc(Oc2ccccc2)c1 [(E)-N-[3-(3-phenoxyphenyl)prop-2-enyl]acetohydroxamic acid, reference compound]

Cmax [1]: 0.93 µg/mL
half-life [1]: > 24 h
IC50 (5-lipoxygenase (5-LO)): 0.08 µM
IC50 (cyclo-oxygenase (CO)): > 1 µM
SMILES: CC(=O)N(O)C(C)/C=C/c1cccc(Oc2ccc(Cl)cc2)c1 (stereo not drawn) [(E)-N-{1-methyl-3-[3-(4-chlorophenoxy)phenyl]prop-2-enyl}acetohydroxamic acid]
Time for stimulated LTB4 synthesis ex vivo to return to 50% of original value [2]: > 24 h
